# According to PubChem BioAssay AID2305 (GlaxoSmithKline (GSK), 2010):
# System: P. falciparum 3D7 growth, pLDH absorbance
# Test: blood-stage malaria parasite growth potency – strain 3D7, dose response (AID 2305)
row,SMILES,IC50
1,C[C@@H](NC(=O)c1nn(-c2ccc(Cl)cc2)c(=O)c2ccccc12)C(C)(C)C,1.12 µM
2,CCCCCCN1CCC(NCc2ccc(C)cc2)CC1,0.86 µM
3,c1cncc(Oc2ccc(Nc3ccnc4cc(-c5cccc(CN6CCCCC6)c5)ccc34)cc2)c1,0.12 µM
4,Cc1cc(OCCCNc2nc(NCCc3ccc(O)cc3)nc(N3CCNCC3)n2)c(Cl)c(C)c1Cl,0.96 µM
5,Cc1cccc(Cn2c(Cc3ccccc3)nnc2Sc2ccc([N+](=O)[O-])c(C#N)c2)c1,1.14 µM
6,CCCc1cc(C(=O)N[C@@H](Cc2ccccc2)[C@H](O)CNC2CCOCC2)c(F)c(N2CCCCS2(=O)=O)c1,0.17 µM
7,c1ccc(Oc2cccc(Nc3ccnc4ccccc34)c2)cc1,1.11 µM
8,Cc1ccc(N)cc1-c1nc(NC2CC(C)(C)NC(C)(C)C2)nc2c1ccc(=O)n2-c1c(F)cccc1F,0.84 µM
9,COc1ccc(CCNCCCCCNCCCc2ccc(Cl)cc2)cc1OC,0.81 µM
10,CC1CCCC(NC(=O)CCOc2ccccc2)C1 (stereo unspecified),0.88 µM
11,CCC(CC)CN1C(=O)C(C)(c2ccccc2)N=C1N (stereo unspecified),1.06 µM
12,O=C(COc1ccccc1)N(Cc1ccc(-c2ccc(CNC3Cc4ccccc4C3)cc2)cc1)C1CCNCC1,1.02 µM
13,CCCCSc1ccc2nc(-c3c[nH]c4ccc(C#N)cc34)cn2c1,0.95 µM
14,COc1ccc(CN(C)C(=O)CCNS(=O)(=O)c2ccc3c(c2)OCCCO3)cc1F,0.66 µM
15,O=C(NC1CC1)c1cnc(N2CCC(Oc3ccc(Cl)cc3)CC2)c(Cl)c1,1.09 µM
16,Oc1ccccc1N1CCN(c2ccc(-c3nc4ccccc4[nH]3)cn2)CC1,1.13 µM
17,CCCNCc1ccc(-c2ccc(CN(CCOC)C(=O)c3cnc(C)cn3)cc2)nc1,1.25 µM
18,CCCCCN1CCC(CNS(=O)(=O)c2ccc(C(=O)Nc3cccc(C(F)(F)F)c3)cc2)CC1,0.75 µM
19,COc1ccccc1/C=C/C(=O)NCCC1CCN(CCCCCNC(=O)/C=C/c2ccc(Cl)c(Cl)c2)CC1,0.81 µM
20,Cc1ccc(Sc2ccc(NC(=O)CN3CCN(C(=O)c4ccco4)CC3)cc2)cc1C,0.91 µM
21,Cc1ccc2nc(C)cc(NN=Cc3cccc(Cl)c3)c2c1,0.74 µM
22,FC(F)(F)c1ccc2nc(-c3cccc(-c4ccc(CNCc5ccccc5)cc4)c3)[nH]c2c1,0.16 µM
23,CCCNc1ccc2nccc(CCN3CCC(NCc4ccc5c(n4)NC(=O)CS5)CC3)c2n1,0.72 µM
24,CCn1c(Sc2ccc(C#N)c([N+](=O)[O-])c2)nnc1-c1cccc(Cl)c1,0.45 µM

row,SMILES,IC50
1,Cc1cccc2[nH]c(-c3cccc(-c4ccc(NC(=O)COC(C)C)cc4)c3)nc12,1.19 µM
2,O=C(Nc1ccccc1)OCCOc1ccc(CC2SC(=O)NC2=O)cc1 (stereo unspecified),0.37 µM
3,COc1ccccc1C(C)NCC(=O)Nc1cc(C(F)(F)F)ccc1Cl (stereo unspecified),0.78 µM
4,CCN(CC)CCCNc1ncc2c(-c3ccc(NC(=O)Nc4cc(C(F)(F)F)ccc4F)cc3)nn(C)c2n1,0.22 µM
5,Cc1ccc2nc(C)cc(NN=CC=Cc3ccccc3)c2c1,0.84 µM
6,Cc1cc(-c2cccc3c(C(=O)N4CCc5cc6nccc(N7CCCN(C)CC7)c6cc54)cccc23)cc(C)n1,0.44 µM
7,CC(C)(C)OC(=O)/C=C(\C(=O)OCc1ccc([N+](=O)[O-])cc1)c1csc(NC(c2ccccc2)(c2ccccc2)c2ccccc2)n1,0.86 µM
8,CSc1ccc(CN2CCC(NC(=O)c3ccc(-c4cccc(Cl)c4)s3)CC2)cc1,1.29 µM
9,Cc1nc2nc(N)nc(N)c2c(C)c1Cc1ccc(N)cc1,0.64 µM
10,CC(C)(C)C1CC(=O)C[C@@H]2C(=O)N(C3CCCCC3)C(=O)[C@H]12 (stereo partly specified),0.42 µM
11,COc1c(C2CCN(CCN3CCC(CNC(=O)c4ccc(-c5ccc(C#N)cc5)cc4)CC3)CC2)ccc2c1CCCC2,0.46 µM
12,COc1ccccc1C1CCN(C2CCC(NC(=O)c3cc4ccccc4[nH]3)CC2)CC1 (stereo unspecified),1.21 µM
13,C(=N\Nc1nccc2sc(-c3cccnc3)cc12)/c1ccncc1,0.21 µM
14,Cc1cccc2[nH]c(-c3cccc(-c4cccc(CNCCCN5CCCC5=O)c4)c3)nc12,0.74 µM
15,CN(C)CCOc1ccc(-n2c(-c3nonc3N)nc3cncc(-c4ccc(F)cc4)c32)cc1,0.87 µM
16,Cc1nn(-c2ccccc2)c2nc(-c3ccccc3)cc(C(=O)N3CCOCC3)c12,0.87 µM
17,CCCC1N=C(N)N=C(N)N1c1ccc(CC)cc1 (stereo unspecified),0.07 µM
18,c1cc(CN2CCN(CCN3CCOCC3)CC2)cc(-c2cccc(-c3nc4ccccc4[nH]3)c2)c1,0.24 µM
19,O=C(C=Cc1ccc(F)c(Br)c1)N1CCC(CN2CCC(c3c[nH]c4ccccc34)CC2)CC1,0.75 µM
20,Cc1cccc2[nH]c(-c3ccc(-c4ccc(CNCCCN5CCCC5=O)cc4)s3)nc12,0.75 µM
21,O=C(Nc1ccccc1)Nc1cccc(-c2cc(CNCCc3ccccc3)sc2-c2ccncc2)c1,0.6 µM
22,O=C(Nc1ccc(Cl)cc1)N(CC1C[C@H]2CC[C@@H](C1)N2Cc1ccc(C(F)(F)F)cc1)c1ccc(N2CCOCC2)c(F)c1 (stereo partly specified),1.07 µM
23,CCOc1c(CNCCCNc2nc3ccccc3[nH]2)cc(I)cc1OC,0.66 µM
24,Fc1cccc(COc2ccc(Nc3ncnc4sc(C#C[C@H]5CC[C@H](CNCC(F)(F)F)N5)cc34)cc2Cl)c1,1.42 µM

row,SMILES,IC50
1,CC(C)CNCc1cccc(-c2cccc(CNCCCN3CCN(C)CC3)c2)c1,1.18 µM
2,CCCCCCN=C(N)c1ccc(OCCCCCOc2ccc(C(N)=NCCCCCC)cc2)cc1,0.31 µM
3,Cc1cc(N2CCCCC2)nc2ccc(NC(=O)c3cncc(Br)c3)cc12,0.72 µM
4,CC(C)C1C(O)=C(c2ccc3ccccc3c2)C(=O)N1CC1CCCCC1 (stereo unspecified),1.13 µM
5,CC(C)(CN)c1nc(-c2ccc(Br)c(O)c2)c(-c2ccncc2)[nH]1,0.97 µM
6,COc1ccc(O)c(Cc2cnc3nc(N)[nH]c(=O)c3c2C)c1,0.23 µM
7,c1ccc(CN2CCC(NCc3ccc(-c4ccc(CNC5CCCC5)cc4)cc3)CC2)cc1,0.29 µM
8,CC(Sc1nc2sccc2c(=O)n1C)C(=O)Nc1ccc2c(c1)OCO2 (stereo unspecified),1.04 µM
9,Cc1cc(N[C@@H](Cc2ccccc2)C(=O)NCCc2ccccc2)nc(NCCc2cccs2)n1,0.71 µM
10,Cn1nccc1C(=O)NCCNCc1ccc(-c2cccc(-c3nc4ccccc4[nH]3)c2)cc1,0.14 µM
11,COc1ccc(NC(=O)c2ccc(Br)c(C)c2)cc1N1CCN(CCCCc2ccccc2)CC1,0.82 µM
12,Cc1cc(-c2ccc(CNC3CCN(C)CC3)cc2)ccc1S(=O)(=O)NCc1ccccc1,0.85 µM
13,Nc1ccnc(N2CCC(CCOc3cc(C(F)(F)F)nc4c(C(F)(F)F)cccc34)CC2)c1,0.79 µM
14,CCc1c(C)nc(-n2nc(C)cc2NC(=O)c2ccc(OC)cc2OC)[nH]c1=O,0.83 µM
15,CC1(CCN2CCC(c3c[nH]c4cnccc34)CC2)CCCc2c(Br)cccc2C1=O (stereo unspecified),0.2 µM
16,O=C(/C=C/c1ccc(Cl)c(Cl)c1)NCCCCCN1CCCC(c2c[nH]c3ccccc23)C1 (stereo unspecified),0.81 µM
17,C[C@@H](Oc1cc(-n2cnc3ccc(NC(=O)NC(C)(C)C)cc32)sc1C(N)=O)c1ccccc1Cl,0.33 µM
18,COc1ccc(CN(C)CCCOc2ccc(NC(=O)c3cccc4c(=O)c5cccc(C)c5[nH]c34)cc2)cc1OC,0.89 µM
19,COc1ccc(Nc2nc(NCc3cccnc3)cc(-c3ccc(OC)cc3)n2)cc1,1.4 µM
20,CCc1[nH]nc(C(=O)NC2CCN(CC3(c4ccc(OC)cc4)CCCCC3)CC2)c1C,0.89 µM
21,Cc1cc(NCCc2ccccc2)nc(/N=C(\N)Nc2cccc(Cl)c2)n1,0.18 µM
22,N#Cc1ccc(CN2CCC(Oc3ccc(NC(=O)c4cccs4)cc3Cl)CC2)cc1,0.58 µM
23,CCNc1cc(C)nc(Nc2ccc(C)cc2)n1,0.73 µM
